From US3943154A, “Acylamides of beta-cyano-ethenesulfonyl substituted aminoarenes” (Sanitized Incorporated, priority 1973, dated 1976)
Converted amounts (≈) assume the structure as drawn. Read-outs that look alike come from different tables or passages of the source.

Assays:
Type in all cases: cell-based
[1] = test system: Bacillus subtilis ATCC 9525; assay: button assay, antibacterial activity; conditions: 24 hours at 37° C; for MIC: Bacillus subtilis, ATCC9525, lowest concentration showing a clear zone of inhibition, read-out: Antibacterial Activity B.subtilis, minimum inhibitory concentration
Protocol: (§1) In the test program, the minimum inhibitory concentrations of the respective test compounds against various Gram positive and Gram negative bacteria were determined, employing the "button assay" method. The test organisms utilized were standard cultures of Staphylococcus aureus ATCC 6538 DR, a penicillin resistant Gram positive bacterium; Bacillus subtilis ATCC 9525, a spore-forming Gram positive bacillus; and Salmonella typhosa ATCC 6539, a Gram negative bacterium.
(§2) In the tests the respective compounds were dissolved in a suitable solvent, usually acetone or dimethylsulfoxide, to give solutions with known concentrations of active material. The highest concentration was ordinarily 1000 ppm (parts per million) [0.1%], and dilutions were made in suitable steps down to 1 ppm. Penicillin test buttons of filter paper having a diameter of 13 mm (socalled "Peniassay" buttons) were added to each solution within a test tube and left submerged for five minutes. They were then removed and left to dry on paper towels under sterile conditions. A laminar flow sterile cabinet equipped with ultraviolet lamps operating under positive air pressure was utilized for this purpose.
(§3) An 18-24 hour old nutrient broth culture (standard 1.5% nutrient agar) prepared in conventional manner from a slant and having passed through at least three consecutive daily transfers was used for inoculation. Melted and cooled sterile agar (45° C) was inoculated with the respective broth cultures by addition of 20 ml broth per liter of agar. The agar was then dispensed into Petri dishes (20 ml per plate) under sterile conditions and allowed to harden.
(§4) The test buttons were placed on the surface of the hardened agar and the plates incubated for 24 hours at 37° C. Where, on inspection, a clear zone of inhibition appeared around the button, inhibition of growth was presumed. Where growth touched the button there was no inhibition. For each of the test compounds, the lowest concentration showing a clear zone is reported as the inhibitory concentration in the following table.
(§5) The button assay and agar incorporation tests were also utilized to determine the corresponding inhibitory concentrations of various control materials, viz., the following well known commercial antimicrobials and fungicides: hexachlorophene, tribromosalicylanilide, trichlorocarbanilide,Captan (N-(trichloromethylthio)4cyclohexene-1,2-dicarboximide) and Zineb (zinc ethylenebis[dithiocarbamate]). The minimum inhibitory concentration of each of the various control materials against the respective organisms is indicated in Table IV below: […]

[2] = test system: Salmonella typhosa ATCC 6539; assay: button assay, antibacterial activity; conditions: for MIC: Salmonella enterica, read-out: Antibacterial Activity S.typhosa, minimum inhibitory concentration
Protocol: as §1
as §2, with “The” for “In the tests the respective compounds were dissolved in a suitable solvent, usually acetone or dimethylsulfoxide, to give solutions with known concentrations of active material. The”
as §3
as §4, with “table. […]” for “table.”

[3] = test system: Aspergillus niger ATCC 6257; assay: agar incorporation test, antifungal activity; conditions: lowest concentration showing no growth or sporulation, four days at 28° C; for MIC: Aspergillus niger, ATCC6257, 96 h, read-out: Antifungal Activity A. niger, minimum inhibitory concentration
Protocol: The anti-fungal activity of the test compounds was determined employing the "agar incorporation" technique, utilizing spores from Aspergillus niger ATCC 6257 as a representative organism. Test solutions were prepared as described above in acetone or dimethylsulfoxide. A source of carbon agar such as Mycophil Agar was used. The agar was melted and cooled and placed in a constant temperature water bath at 45° C + 3° C. About 13-14 ml of the agar was then poured into a sterile Petri dish, the required amount of test solution to give the desired concentration immediately added thereto, and the dish rotated and swirled by hand to obtain a uniform mixture before the agar hardened.
The hardened plates were inoculated with the test organism by fishing spores from a 7-14 day old slant with the inocculating needle and spotting the spores on the plates, usually in several places. The inoculated plates were incubated for four days in an incubator maintained at 28° C +2° C and with a relative humidity of 95%+.
The lowest concentration of each test compound showing no growth or sporulation of the test organism was taken as the minimum inhibitory concentration and is reported in the following tabulation.
as §5

[4] = test system: Staphylococcus aureus ATCC 6538 DR; assay: button assay, antibacterial activity; conditions: for MIC: Staphylococcus aureus, ATCC6538, 24 h, read-out: Antibacterial Activity S.aureus, minimum inhibitory concentration
Protocol: as §1, §2, §3
as §4, with “table. […]” for “table.”

[5] = button assay, lowest concentration showing a clear zone of inhibition, 24 hours at 37° C

SMILES	MIC [1] [µg/mL]	MIC ([2]; 24 h) [µg/mL]	MIC [3] [µg/mL]	MIC [4] [µg/mL]	Antibacterial Activity B.subtilis, minimum inhibitory concentration ([1]; lowest concentration showing a clear zone of inhibition) [ppm]	Antibacterial Activity S.typhosa, minimum inhibitory concentration [2, 5] [ppm]	Antifungal Activity A. niger, minimum inhibitory concentration [3] [ppm]	Antibacterial Activity S.aureus, minimum inhibitory concentration [4, 5] [ppm]	MIC [2, 5] [µg/mL]
CCOC(=O)c1ccc(S(=O)(=O)Nc2ccc(S(=O)(=O)C=CC#N)cc2)cc1 [Example 27, 3-[4-(4-[…])BENZENESULFONYL]ACRYLONITRILE]	20 (≈ 47.6 µM)	10 (≈ 23.8 µM)	100 (≈ 238 µM)	10 (≈ 23.8 µM)					
COc1ccc(S(=O)(=O)Nc2ccc(S(=O)(=O)C=CC#N)cc2)cc1 [Example 28, 3-[4-(4-methoxybenzenesulfonamido)benzenesulfonyl] acrylonitrile]	10 (≈ 26.4 µM)	5 (≈ 13.2 µM)	> 1000	1 (≈ 2.64 µM)					
COc1ccc(S(=O)(=O)Nc2ccc(S(=O)(=O)C=CC#N)cc2)cc1OC [Example 29.1, 3-[4-(3,4-dimethoxybenzenesulfonamido)benzenesulfonyl]acrylonitrile]	10 (≈ 24.5 µM)	10 (≈ 24.5 µM)	300 (≈ 734 µM)	20 (≈ 49 µM)					
COc1ccc(OC)c(S(=O)(=O)Nc2ccc(S(=O)(=O)C=CC#N)cc2)c1 [Example 29.2, 3-[4-(2,5-dimethoxybenzenesulfonamido)benzenesulfonyl]acrylonitrile]	20 (≈ 49 µM)	50 (≈ 122 µM)	1000 (≈ 2450 µM)	20 (≈ 49 µM)					
CC(=O)Nc1ccc(S(=O)(=O)Nc2ccc(S(=O)(=O)C=CC#N)cc2)cc1 [Example 30, 3-[4-(4-[…])BENZENESULFONYL]ACRYLONITRILE]	50 (≈ 123 µM)	50 (≈ 123 µM)	> 1000	50 (≈ 123 µM)					
N#CC=CS(=O)(=O)c1ccc(NC(=O)c2cccc(S(=O)(=O)Nc3ccc(S(=O)(=O)C=CC#N)cc3)c2)cc1 [Example 31, N'-4-(2-cyanoethenesulfonyl)phenylN"-3-(2-cyanoethenesulfonyl)phenylsulfamoylbenzamide]	20 (≈ 34.3 µM)	20 (≈ 34.3 µM)	100 (≈ 172 µM)	20 (≈ 34.3 µM)					
N#CC=CS(=O)(=O)c1ccc(NS(=O)(=O)c2ccc(C3=CC3(Cl)Cl)cc2)cc1 [Example 32, 3-[4-(4-dichlorocarbostyrenesulfonamido)benzenesulfonyl]acrylonitrile]	5 (≈ 11 µM)	5 (≈ 11 µM)	1000 (≈ 2200 µM)	5 (≈ 11 µM)					
N#CC=CS(=O)(=O)c1ccc(NS(=O)(=O)c2cccc(S(=O)(=O)Nc3ccc(S(=O)(=O)C=CC#N)cc3)c2)cc1 [Example 33, N.N'-bis-[4-(2-cyanoethenesulfonyl)phenyl]-1,3-phenylenesulfonamide]	10000 (≈ 16200 µM)	100 (≈ 162 µM)	> 1000	300 (≈ 485 µM)					
N#CC=CS(=O)(=O)c1ccc(NS(=O)(=O)c2ccc(Oc3ccc(S(=O)(=O)Nc4ccc(S(=O)(=O)C=CC#N)cc4)cc3)cc2)cc1 [Example 34, 4,4'-N,N'-bis[4-(2-cyanoethenesulfonyl)-phenylsulfamoyl]diphenyl ether]	100 (≈ 141 µM)	50 (≈ 70.3 µM)	> 1000	100 (≈ 141 µM)					
N#CC=CS(=O)(=O)c1ccc(NS(=O)(=O)c2ccc3ccccc3c2)cc1 [Example 35, 3-[4-(2-naphthalenesulfonamido)benzenesulfonyl]acrylonitrile]	5 (≈ 12.5 µM)	5 (≈ 12.5 µM)	> 1000	10 (≈ 25.1 µM)					
CC(=O)Nc1nnc(S(=O)(=O)Nc2ccc(S(=O)(=O)C=CC#N)cc2)s1 [Example 38, 3-[4-(2-acetamido-1,3,4-thiadiazole-5-sulfonamido)benzenesulfonyl]acrylonitrile]	50 (≈ 121 µM)	100 (≈ 242 µM)	1000 (≈ 2420 µM)	500 (≈ 1210 µM)					
N#CC=CS(=O)(=O)c1ccc(NSC(Cl)(Cl)Cl)cc1 [Example 42, 3-(4-trichlorosulfenamidobenzenesulfonyl)acrylonitrile]	20 (≈ 55.9 µM)	20 (≈ 55.9 µM)	1000 (≈ 2800 µM)	20 (≈ 55.9 µM)					
N#CC=CS(=O)(=O)c1ccc(NSc2ccc([N+](=O)[O-])cc2)cc1 [Example 43, 3-[4-(4-nitrobenzenesulfenamido)benzenesulfonyl]acrylonitrile]	5 (≈ 13.8 µM)	10 (≈ 27.7 µM)	300 (≈ 830 µM)	5 (≈ 13.8 µM)					
N#CC=CS(=O)(=O)c1ccc(N=S=O)cc1 [Example 44, 3-(4-sulfinylimidobenzenesulfonyl)acrylonitrile]	10 (≈ 39.3 µM)	10 (≈ 39.3 µM)	300 (≈ 1180 µM)	20 (≈ 78.6 µM)					
N#CC=CS(=O)(=O)c1ccc(NP(=O)(Nc2ccc(S(=O)(=O)C=CC#N)cc2)Nc2ccc(S(=O)(=O)C=CC#N)cc2)cc1 [Example 45, TRIS-N,N', N"-4-(2-CYANOETHENESULFONYL)PHENYL PHOSPHORAMIDE]	5 (≈ 7.48 µM)	50 (≈ 74.8 µM)	300 (≈ 449 µM)	50 (≈ 74.8 µM)					
CN(C)P(=O)(Nc1ccc(S(=O)(=O)C=CC#N)cc1)N(C)C [Example 51, bis-dimethylamido-4-(2-cyanoethenesulfonyl)anilidophosphine oxide]	20 (≈ 58.4 µM)	10 (≈ 29.2 µM)	100 (≈ 292 µM)	20 (≈ 58.4 µM)					
N#CC=CS(=O)(=O)c1ccc(NP(=O)(Nc2ccc(S(=O)(=O)C=CC#N)cc2)N(CCCl)CCCl)cc1 [Example 52, di-(2-chloroethyl)amido-di-4-(2-cyanoethenesulfonylanilido)phosphine oxide]					10	10	100	10	
N#CC=CS(=O)(=O)c1ccc(NP(=O)(OCC(Br)CBr)OCC(Br)CBr)cc1 (stereo not shown) [Example 56, 0,0-bis(2,3-dibromopropyl)-N-4-(2-cyanoethenesulfonyl)phenyl phosphoramide]	10 (≈ 14.5 µM)		100 (≈ 145 µM)	10 (≈ 14.5 µM)					10 (≈ 14.5 µM)
N#CC=CS(=O)(=O)c1ccc(NP(=O)(Nc2ccc(S(=O)(=O)C=CC#N)cc2)c2ccccc2)cc1 [Example 58, phenyl-di-[4-(2-cyanoethenesulfonyl)anilido]phosphine oxide]	10 (≈ 18.6 µM)	10 (≈ 18.6 µM)	100 (≈ 186 µM)	20 (≈ 37.1 µM)					
N#CC=CS(=O)(=O)c1ccc(NP(=S)(Nc2ccc(S(=O)(=O)C=CC#N)cc2)c2ccccc2)cc1 [Example 59, PHENYL-DI-[4-(2-CYANOETHENESULFONYL)ANILIDO]PHOSPHINE SULFIDE]	50 (≈ 90.2 µM)		500 (≈ 902 µM)	50 (≈ 90.2 µM)					50 (≈ 90.2 µM)
S=C([S-])NCCNC(=S)[S-].[Zn+2] [Zineb, zinc ethylenebis[dithiocarbamate], reference compound]	300		> 1000	300					> 10000
Oc1c(Cl)cc(Cl)c(Cl)c1Cc1c(O)c(Cl)cc(Cl)c1Cl [hexachlorophene, reference compound]	5 (≈ 12.3 µM)		> 1000	5 (≈ 12.3 µM)					20 (≈ 49.2 µM)
